From patent publication US9550782B2, “Compounds and methods for treating diabetes” (Medivation Technologies, Inc., priority 2011, dated 2017)
Where “and” joins values, the source holds several entries; their conditions need not be identical. Identical values can stand only once.

Tests used:
[1] = biological target: T1, human recombinant adrenergic α2B receptor (Homo sapiens, UniProt P18089); test: Radioligand binding, adrenergic α2B ([3H]Rauwolscine); conditions: compound at 0.03 μM, repeat datapoints each shown, 0.03 µM
T1 construct: expressed in transfected cells; host or cells: CHO-K1
T1 sequence (P18089 1-450): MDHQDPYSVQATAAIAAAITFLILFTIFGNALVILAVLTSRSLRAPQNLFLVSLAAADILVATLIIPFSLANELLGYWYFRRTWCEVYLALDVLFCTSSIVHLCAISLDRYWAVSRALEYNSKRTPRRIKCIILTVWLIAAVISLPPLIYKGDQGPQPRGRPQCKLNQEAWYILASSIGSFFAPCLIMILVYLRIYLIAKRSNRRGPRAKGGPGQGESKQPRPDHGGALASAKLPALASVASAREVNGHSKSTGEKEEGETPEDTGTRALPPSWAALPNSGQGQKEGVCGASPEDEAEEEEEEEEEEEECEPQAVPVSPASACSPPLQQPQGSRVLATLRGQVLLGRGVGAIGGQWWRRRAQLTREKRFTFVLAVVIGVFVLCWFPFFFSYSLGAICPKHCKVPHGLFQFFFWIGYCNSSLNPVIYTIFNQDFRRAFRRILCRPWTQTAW
Summary of the method: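 Values are percent inhibition of specific radioligand binding. The receptor, expressed in CHO-K1 cells, was exposed to 2.5 nM [3H]Rauwolscine at 25° C for 60 min, with 10 μM Prazosin marking non-specific binding.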

[2] = biological target: T2, human recombinant adrenergic α2A receptor (Homo sapiens, UniProt P08913); test: Radioligand binding, adrenergic α2A ([3H]MK-912); conditions: [3H]MK-912, repeat datapoints each shown; for Percentage inhibition of ligand binding, Adrenergic α2A (0.1 μM): compound at 0.1 μM
T2 construct: expressed in transfected cells; host or cells: insect Sf9 cells
T2 sequence (P08913 1-465): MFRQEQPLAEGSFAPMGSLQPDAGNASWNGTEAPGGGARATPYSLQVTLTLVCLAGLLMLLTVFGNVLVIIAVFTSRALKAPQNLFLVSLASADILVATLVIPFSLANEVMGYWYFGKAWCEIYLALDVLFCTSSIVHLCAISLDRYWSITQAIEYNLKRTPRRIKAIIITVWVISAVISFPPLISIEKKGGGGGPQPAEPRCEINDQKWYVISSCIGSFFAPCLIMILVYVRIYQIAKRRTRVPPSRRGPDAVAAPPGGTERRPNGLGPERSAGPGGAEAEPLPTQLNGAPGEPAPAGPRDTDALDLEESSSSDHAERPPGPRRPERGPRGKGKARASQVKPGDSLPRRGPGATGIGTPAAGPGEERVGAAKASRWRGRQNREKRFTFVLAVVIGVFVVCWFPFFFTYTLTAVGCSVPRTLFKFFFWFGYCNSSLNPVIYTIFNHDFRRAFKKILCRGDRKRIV
Summary of the method: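 Receptor expressed in Sf9 cells, in 50 mM Tris-HCl pH 7.4, 12.5 mM MgCl2, 2 mM EDTA; compounds incubated with 1 nM [3H]MK-912 for 60 min at 25 °C.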

[3] = biological target: T3, rat adrenergic α1B receptor (Rattus norvegicus, UniProt P15823); test: Radioligand binding, adrenergic α1B ([3H]Prazosin); design: species or system Wistar Rat; conditions: repeat datapoints each shown; for Percentage inhibition of ligand binding, Adrenergic α1B (0.1 μM): compound at 0.1 μM
T3 construct: rat adrenergic α1B receptor obtained from Wistar Rat liver; from tissue; host or cells: Wistar rat liver
T3 sequence (P15823 1-515): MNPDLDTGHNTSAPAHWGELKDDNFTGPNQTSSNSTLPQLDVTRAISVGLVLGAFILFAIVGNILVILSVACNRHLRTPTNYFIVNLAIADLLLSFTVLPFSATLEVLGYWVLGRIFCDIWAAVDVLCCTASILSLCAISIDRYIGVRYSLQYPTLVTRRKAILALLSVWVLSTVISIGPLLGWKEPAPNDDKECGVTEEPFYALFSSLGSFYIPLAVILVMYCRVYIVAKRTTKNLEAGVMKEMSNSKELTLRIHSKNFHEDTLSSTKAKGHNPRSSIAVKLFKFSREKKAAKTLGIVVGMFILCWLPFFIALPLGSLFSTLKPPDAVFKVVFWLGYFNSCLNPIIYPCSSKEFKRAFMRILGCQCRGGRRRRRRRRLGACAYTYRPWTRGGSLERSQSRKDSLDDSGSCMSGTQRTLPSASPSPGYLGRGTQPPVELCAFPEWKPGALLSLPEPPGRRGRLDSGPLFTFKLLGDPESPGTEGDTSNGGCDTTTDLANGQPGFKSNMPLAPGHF
Summary of the method: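 Specific binding, taken as total minus that remaining with 10 μM phentolamine, is measured after filtration and counting. Rat liver receptor preparation and 0.25 nM [3H]prazosin are incubated with compound in 50 mM Tris-HCl (pH 7.4, 0.5 mM EDTA) at 25° C for 60 min. Activity is reported as percent inhibition.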

Compound	Percentage inhibition of ligand binding, Adrenergic α2B (0.03 μM) [1]	Percentage inhibition of ligand binding, Adrenergic α2A (0.03 μM) ([2]; compound at 0.03 μM) [%]	Percentage inhibition of ligand binding, Adrenergic α2A (0.1 μM) [2]	Percentage inhibition of ligand binding, Adrenergic α1B (0.03 μM) ([3]; compound at 0.03 μM) [%]	Percentage inhibition of ligand binding, Adrenergic α1B (0.1 μM) [3]
CN1CCc2c(c3cc(Cl)ccc3n2CC(C)(O)c2cccnc2)C1 (single isomer, unassigned) [31a]	93% and 97%	11	19% and 27%	16	25% and 28%
CCC1c2c(c3cc(C)ccc3n2CC(O)c2ccncc2)C2CCN1C2 (single isomer, unassigned) [36a]	33%		8%		14%
CCC1c2c(c3cc(C)ccc3n2CC(O)c2ccncc2)C2CCN1C2 (single isomer, unassigned) [36b]	−1%		0%		11%
OC(Cn1c2c(c3cccnc31)CN1CCCC1C2)c1ccncc1 (single isomer, unassigned) [37a]	2%		18%		−5%
OC(Cn1c2c(c3cccnc31)CN1CCCC1C2)c1ccncc1 (single isomer, unassigned) [37b]	−3%		−20%		−10%
OC(Cn1c2c(c3cccnc31)CN1CCCC1C2)c1ccncc1 (single isomer, unassigned) [37c]	0%		6%		2%
OC(Cn1c2c(c3cccnc31)CN1CCCC1C2)c1ccncc1 (single isomer, unassigned) [37d]	−3%		8%		2%
Cc1ccc2c(c1)c1c(n2CC(O)c2ccncc2)C(C)N2CCC1C2 (single isomer, unassigned) [38a]	35%		14%		11%
Cc1ccc2c(c1)c1c(n2CC(O)c2ccncc2)C(C)N2CCC1C2 (single isomer, unassigned) [38b]	17%		−1%		20%
CN1CCc2c(c3ccc(C(F)(F)F)cc3n2CC(O)c2cccnc2)C1 (single isomer, unassigned) [40a]	27%		7%		2%
CN1CCc2c(c3ccc(C(F)(F)F)cc3n2CC(O)c2cccnc2)C1 (single isomer, unassigned) [40b]	29%		13%		−2%
CN1CCc2c(n(CC(O)c3ccncc3)c3ccc(Cl)cc23)C1 (single isomer, unassigned) [41a]	14%		−9%		43%
CN1CCc2c(n(CC(O)c3ccncc3)c3ccc(Cl)cc23)C1 (single isomer, unassigned) [41b]	50%		8%		50%
CN1CCc2c(c3cccc(Cl)c3n2CC(O)c2ccncc2)C1 (single isomer, unassigned) [45a]	54%		−4%		23%
CN1CCc2c(c3cccc(Cl)c3n2CC(O)c2ccncc2)C1 (single isomer, unassigned) [45b]	96%		16%		24%
Cc1ccc2c(c1)c1c(n2CC(O)c2ccncc2)CCN2CCCCC12 (single isomer, unassigned) [47a]	40%		10%		58%
Cc1ccc2c(c1)c1c(n2CC(O)c2ccncc2)CCN2CCCCC12 (single isomer, unassigned) [47b]	119%		41%		70%
Cc1ccc2c(c1)c1c(n2CC(O)c2ccncc2)CCN2CCCCC12 (single isomer, unassigned) [47c]	53%		4%		6%
Cc1ccc2c(c1)c1c(n2CC(O)c2ccncc2)CCN2CCCCC12 (single isomer, unassigned) [47d]	30%		−3%		5%
CN1CCc2c(c3cccc(Br)c3n2CC(O)c2ccncc2)C1 (single isomer, unassigned) [48a]	58%		12%		16%
CN1CCc2c(c3cccc(Br)c3n2CC(O)c2ccncc2)C1 (single isomer, unassigned) [48b]	86%		17%		14%
Cc1ccc2c(c1)c1c(n2CC(C)(O)c2ccc[n+]([O-])c2)CCN(C)C1 (single isomer, unassigned) [56a]	20%		11%		1%
Cc1ccc2c(c1)c1c(n2CC(C)(O)c2ccc[n+]([O-])c2)CCN(C)C1 (single isomer, unassigned) [56b]	28%		17%		6%
CN1CCc2c(c3cc(C(F)(F)F)ccc3n2CC(O)c2cccnc2)C1 (single isomer, unassigned) [59a]	15%		18%		11%
CN1CCc2c(c3cc(C(F)(F)F)ccc3n2CC(O)c2cccnc2)C1 (single isomer, unassigned) [59b]	31%		12%		7%
